Measured values reported in US9290490B2 (Merck Sharp & Dohme Corp., priority 2011, dated 2016).
pIC50: −log10 of the molar value. Structures can show the parent of a compound that is named as a salt. Where two headings read alike, the source gives them in different places.

Molecular target: recombinant human GST-Syk (Homo sapiens (Human), UniProt P43405)
Assay: Homogeneous Time-Resolved Fluorescence (HTRF) Assay for the Recombinant Human Syk Enzyme
Format: biochemical
Conditions: recombinant human GST-Syk 5 pM, ATP 25 μM
Procedure: Homogeneous Time-Resolved Fluorescence (HTRF) Assay for the Recombinant Human Syk Enzyme:
A recombinant GST-hSyk fusion protein was used to measure potency of compounds to inhibit human Syk activity. The recombinant human GST-Syk (Carna Biosciences #08-176) (5 pM final concentration) was incubated with various concentrations of the inhibitor diluted in DMSO (0.1% final concentration) for 10 minutes at room temperature in 15 mM Tris-HCl (pH 7.5), 0.01% tween 20, 2 mM DTT in 384 well plate format. To initiate the reaction the biotinylated substrate peptide (250 nM final concentration) that contains the phosphorylation site for Syk was added with magnesium (5 mM final concentration) and ATP (25 μM final concentration). Final volume of the reaction was 10 μL. Phosphorylation of the peptide was allowed to proceed for 45′ at room temperature. To quench the reaction and detect the phosphorylated product, 2 nM of a Europium-anti-phosphotyrosine antibody (Perkin Elmer #AD0161) and 70 nM SA-APC (Perkin-Elmer #CR130-100) were added together in 15 mM Tris pH 7.5, 40 mM EDTA, 0.01% Tween 20. Final volume of the quenching solution was 10 μL. The resulting HTRF signal was measured after 30 minutes on a EnVision (Perkin-Elmer) reader using a time-resolved fluorescence protocol. […] IC50 values are also provided for the following representative compounds: […]

[1] = read-out: rhSyk Activity (IC50)
[2] = 10-dose titration, read-out: rhSyk

| SMILES | pIC50 [1] | pIC50 [2] |
| --- | --- | --- |
| Cc1cc(Nc2nccc(C(F)(F)F)n2)cc(-c2cnc(C(=O)C3CCC(=O)CC3(C)C)s2)c1 (racemic) [Example 11, N-(3-{2-[(2,2-dimethyl-4-oxocyclohexyl)carbonyl]-1,3-thiazol-5-yl}-5-methylphenyl)-4-(trifluoromethyl)pyrimidin-2-aminium trifluoroacetate] | 6.00 to 7.00 |  |
| CCCCOC(=O)[C@H]1CC[C@H](C(C)(O)c2ncc(-c3cc(C)cc(Nc4nccc(C(F)(F)F)n4)c3)s2)CC1 (relative stereo) [Example 1, Step 1, butyl trans-4-{1-hydroxy-1-[5-(3-methyl-5-{[4-(trifluoromethyl)pyrimidin-2-yl]amino}-phenyl)-1,3-thiazol-2-yl]ethyl}cyclohexanecarboxylate] | ≥ 7.00 |  |
| CCCCOC(=O)[C@H]1CC[C@H](C(C)(O)c2ncc(-c3cc(C)cc(Nc4nccc(C(F)F)n4)c3)s2)CC1 (single isomer, unassigned) | 6.00 to 7.00 |  |
| Cc1cc(Nc2nccc(C(F)(F)F)n2)cc(-c2cnc([C@@](O)(C3CC3)[C@H]3CC[C@H](C(=O)O)CC3)s2)c1 (single isomer, unassigned) [Example 2 (from Intermediate 28 faster eluting enantiomer), trans-4-{(R or S)-cyclopropyl(hydroxy)[5-(3-methyl-5-{[4-(trifluoromethyl)pyrimidin-2-yl]amino}phenyl)-1,3-thiazol-2-yl]methyl}cyclohexanecarboxylic acid] | ≥ 7.00 |  |
| Cc1cc(Nc2nccc(C(F)(F)F)n2)cc(-c2cnc([C@@](O)(C3CC3)[C@H]3CC[C@H](C(=O)O)CC3)s2)c1 (single isomer, unassigned) [Example 2 (from Intermediate 28 slower eluting enantiomer), trans-4-{(R or S)-cyclopropyl(hydroxy)[5-(3-methyl-5-{[4-(trifluoromethyl)pyrimidin-2-yl]amino}phenyl)-1,3-thiazol-2-yl]methyl}cyclohexanecarboxylic] | ≥ 7.00 |  |
| Cc1cc(Nc2nccc(C)n2)cc(-c2cnc(C(C)(O)[C@H]3CC[C@H](C(=O)O)CC3)s2)c1 (single isomer, unassigned) [Example 2-52, trans-4-[(1R or S)-hydroxy-1-(5-{3-methyl-5-[(4-methylpyrimidin-2-yl)amino]phenyl}-1,3-thiazol-2-yl)ethyl]cyclohexanecarboxylic acid] | ≥ 7.00 | 9.00 |
| Cc1cc(Nc2nccc(C(F)F)n2)cc(-c2cnc(C(C)(O)[C@H]3CC[C@H](C(=O)O)CC3)s2)c1 (single isomer, unassigned) [Example 2-77, trans-4-{(1R or S)-[5-(3-{[4-(difluoromethyl)pyrimidin-2-yl]amino}-5-methylphenyl)-1,3-thiazol-2-yl]-1-hydroxyethyl}cyclohexanecarboxylic acid] | ≥ 7.00 | > 9.30 |
| Cc1cc(Nc2nccc(C(F)(F)F)n2)cc(-c2cnc(C(C)(O)C3CCC(C)(C(=O)O)CC3)s2)c1 (single isomer, unassigned) [Example 3 (isomer 3), 4-{1-hydroxy-1-[5-(3-methyl-5-{[4-(trifluoromethyl)pyrimidin-2-yl]amino}phenyl)-1,3-thiazol-2-yl]ethyl}-1-methylcyclohexanecarboxylic acid] | ≥ 7.00 |  |
| Cc1cc(Nc2nccc(C)n2)cc(-c2cnc(CC3(O)CCC(C(=O)OC(C)(C)C)CC3)s2)c1 (single isomer, unassigned) [Example 5, Step 3 (cis isomer), tert-butyl cis-4-hydroxy-4-[(5-{3-methyl-5-[(4-methylpyrimidin-2-yl)amino]phenyl}-1,3-thiazol-2-yl)methyl]cyclohexanecarboxylate] | 6.00 to 7.00 |  |
| Cc1cc(Nc2nccc(C)n2)cc(-c2cnc(CC3(O)CCC(C(=O)OC(C)(C)C)CC3)s2)c1 (single isomer, unassigned) [Example 5, Step 3 (trans isomer), tert-butyl trans-4-hydroxy-4-[(5-{3-methyl-5-[(4-methylpyrimidin-2-yl)amino]phenyl}-1,3-thiazol-2-yl)methyl]cyclohexanecarboxylate] | 6.00 to 7.00 | 6.50 |
| Cc1cc(Nc2nccc(C(F)(F)F)n2)cc(-c2cnc(C(C)(O)[C@H]3CC[C@H](c4nn[nH]n4)CC3)s2)c1 (single isomer, unassigned) [Example 6 (faster eluting enantiomer), 2-{[3-(2-{1-hydroxy-1-[trans-4-(2H-tetrazol-5-yl)cyclohexyl]ethyl}-1,3-thiazol-5-yl)-5-methylphenyl]amino}-4-(trifluoromethyl)pyrimidin-1-ium trifluoroacetate] | ≥ 7.00 |  |
| Cc1cc(Nc2nccc(C(F)(F)F)n2)cc(-c2cnc(C(C)(O)[C@H]3CC[C@H](c4nn[nH]n4)CC3)s2)c1 (single isomer, unassigned) [Example 6 (slower eluting enantiomer), 2-{[3-(2-{1-hydroxy-1-[trans-4-(2H-tetrazol-5-yl)cyclohexyl]ethyl}-1,3-thiazol-5-yl)-5-methylphenyl]amino}-4-(trifluoromethyl)pyrimidin-1-ium trifluoroacetate] | ≥ 7.00 |  |
| Cc1ccnc(Nc2cc(C)c(Br)c(-c3cnc([C@](C)(O)[C@H]4CC[C@H](C(=O)O)CC4)s3)c2)n1 (single isomer, unassigned) [Example 8, trans-4-[(1R or 1S)-1-(5-{2-bromo-3-methyl-5-[(4-methylpyrimidin-2-yl)amino]phenyl}-1,3-thiazol-2-yl)-1-hydroxyethyl]cyclohexanecarboxylic acid] | ≥ 7.00 |  |
| Cc1cc(Nc2nccc(C)n2)cc(-c2cnc(C[C@H]3CC[C@@H](C(=O)O)CC3)s2)c1 (single isomer, unassigned) [Example 13 (cis, faster eluting isomer), cis-4-[(5-{3-methyl-5-[(4-methylpyrimidin-2-yl)amino]phenyl}-1,3-thiazol-2-yl)methyl]cyclohexanecarboxylic acid] | ≥ 7.00 |  |
| Cc1cc(Nc2nccc(C)n2)cc(-c2cnc(C[C@H]3CC[C@H](C(=O)O)CC3)s2)c1 (single isomer, unassigned) [Example 13 (trans, slower eluting isomer), trans-4-[(5-{3-methyl-5-[(4-methylpyrimidin-2-yl)amino]-phenyl}-1,3-thiazol-2-yl)methyl]cyclohexanecarboxylic acid] | ≥ 7.00 |  |
| C[C@](O)(c1ncc(-c2cc(CO)cc(Nc3nccc(C(F)(F)F)n3)c2)s1)[C@H]1CC[C@H](C(=O)O)CC1 (single isomer, unassigned) [Example 15, trans-4-[(1R or 1S)-1-hydroxy-1-{5-[3-(hydroxymethyl)-5-{[4-(trifluoromethyl)pyrimidin-2-yl]amino}phenyl]-1,3-thiazol-2-yl}ethyl]cyclohexanecarboxylic acid] | ≥ 7.00 | > 9.30 |
| CC(O)(c1ncc(-c2cc(Nc3nccc(C(F)(F)F)n3)cc(C3CC3)c2)s1)[C@H]1CC[C@H](C(=O)O)CC1 (single isomer, unassigned) [Example 16, trans-4-{(1R or 1S)-[5-(3-cyclopropyl-5-{[4-(trifluoromethyl)pyrimidin-2-yl]amino}phenyl)-1,3-thiazol-2-yl]-1-hydroxyethyl}cyclohexanecarboxylic acid] | ≥ 7.00 | 9.00 |
| C[C@@](O)(c1ncc(-c2cc(F)cc(Nc3nccc(C(F)(F)F)n3)c2)s1)[C@H]1CC[C@H](C(=O)O)CC1 (single isomer, unassigned) [Example 17, trans-4-{(1R or 1S)-1-[5-(3-fluoro-5-{[4-(trifluoromethyl)pyrimidin-2-yl]amino}phenyl)-1,3-thiazol-2-yl]-1-hydroxyethyl}cyclohexanecarboxylic acid] | ≥ 7.00 | 9.00 |
| CC(O)(c1ncc(-c2cc(Nc3nccc(C(F)(F)F)n3)cc(C(F)F)c2)s1)[C@H]1CC[C@H](C(=O)O)CC1 (single isomer, unassigned) [Example 18, trans-4-((1R or 1S)-{5-[3-(difluoromethyl)-5-{[4-(trifluoromethyl)pyrimidin-2-yl]amino}phenyl]-1,3-thiazol-2-yl}-1-hydroxyethyl)cyclohexanecarboxylic acid] | ≥ 7.00 | > 9.30 |
| Cc1cc(Nc2nccc(C)n2)cc(-c2cnc(C[C@]3(O)CC[C@H](C(=O)O)CC3)s2)c1 [5 (trans isomer), trans-4-hydroxy-4-[(5-{3-methyl-5-[(4-methylpyrimidin-2-yl)amino]phenyl}-1,3-thiazol-2-yl)methyl]cyclohexanecarboxylic acid] | ≥ 7.00 |  |
| Cc1cc(Nc2nccc(C(F)(F)F)n2)cc(-c2cnc(C(=O)C3CCC4(CC3)OCCO4)s2)c1 [Example 1-20, 1,4-dioxaspiro[4.5]dec-8-yl[5-(3-methyl-5-{[4-(trifluoromethyl)pyrimidin-2-yl]amino}phenyl)-1,3-thiazol-2-yl]methanone] | 6.00 to 7.00 |  |
| CCCCC(=O)OC1CCC(C(C)(O)c2ncc(-c3cc(C)cc(Nc4nccc(C(F)(F)F)n4)c3)s2)CC1 (centres unmarked) [Example 2-3] | 5.00 to 6.00 | 5.90 |
| CCC(=O)O[C@@H]1CCC(C(C)(O)c2ncc(-c3cc(C)cc(Nc4nccc(C)n4)c3)s2)C[C@H]1C (some centres unmarked) [Example 2-16] | ≥ 7.00 | 7.03 |
